“Also recorded” adds a separate entry of the source.

Series [1] relates to HBV. Further details: method as in PMID 30181376. The conditions noted are these: metabolically active primary human hepatocytes; cited from earlier work.
The subject of the next series is HBV GT D. In words: Transient-transfection antiviral study in HepG2 cells, GT D. Type of series: cell-based. The conditions noted are these: Hepatitis B virus, HepG2, 72 h, read-out: EC50 (mean), HBV GT D.
The test system of series [2] is HBV isolates representing GT A to H. In words: Transient-transfection antiviral study, panel of HBV isolates GT A to H (summary statements). The class given is cell-based, hepatitis B virus. The conditions noted are these: EC50 values within this factor of each other.
Protocol: (§1) Cells were cotransfected with the HBV plasmids (100 ng/well) and a Gaussia expression plasmid (10 ng/well) (Thermo Scientific) using the Lipofectamine LTX Plus transfection reagent (Life Technologies). Transfection mixtures were removed after overnight incubation, and cells were treated with serially diluted NVR 3-778 at a final dimethyl sulfoxide (DMSO) concentration of 0.5%. After 3 days of incubation with the compound, the supernatants were collected and secreted Gaussia luciferase was measured using a Gaussia Flash luciferase assay kit (Thermo Scientific). […] Samples were diluted into lysis buffer (Affymetrix) containing 2.5 µg proteinase K (Affymetrix) at 50°C for 40 min. Intracellular encapsidated HBV DNA was denatured for 30 min at 25°C in 0.2 M NaOH (Sigma) and incubated with HBV DNA probes designed to hybridize to the minus-strand HBV DNA (Affymetrix). The denatured DNA was subsequently detected using a QuantiGene assay kit, according to the branched DNA (bDNA) assay recommended by the manufacturer (Affymetrix).
For a further series, the system named is HBV (GT C). Further details: method as in PMID 29079518. Conditions: cited from earlier work.
The test system of series [3] is HBV. In words: Effect of human serum on antiviral activity in HepG2.2.15 cells. Type of series: cell-based, hepatitis B virus (GT D). Conditions: for EC50 / EC90: Hepatitis B virus, HepG2.2.15, 144 h, HepG2.2.15 cells, 6 days. As to the method:
To determine the effect of human protein binding on NVR 3-778 antiviral activity, HepG2.2.15 cells were incubated with increasing concentrations of NVR 3-778 in the presence of 0% to 40% human serum.
In combination studies, cells were treated with compounds either alone or in combination after combining the compounds in a checkerboard format. In studies examining the effect of human serum, serially diluted NVR 3-778 was added into cell culture medium containing 0% to 40% human serum (BioreclamationIVT). Cells were incubated with the compounds for 3 days, after which the medium was removed, fresh medium containing the compounds was added to the cells, and the cells were incubated for another 3 days prior to harvesting of the supernatants or cells for antiviral assays. To quantify intracellular encapsidated rcDNA or encapsidated pgRNA, cells were first solubilized using lysis buffer containing 1% NP-40 and 10 mM CaCl2. The cytoplasmic fraction was then treated with S7 nuclease (6 units) to remove nonencapsidated nucleic acids, after which the S7 nuclease was inactivated by the addition of EDTA (0.5 M). […] The levels of HBV DNA were determined by a bDNA assay as described above (Affymetrix). Supernatants or cell lysates containing HBV RNA were treated with proteinase K (2.5 µg) at 50°C for 40 min, transferred to a capture plate containing HBV RNA probe sets, and hybridized overnight at 55°C. Captured HBV RNA was measured by the addition of a chemiluminescent substrate using a QuantiGene assay (Affymetrix). […] At day 6, the CellTiter-Glo reagent was added to the cells and viability was determined according to the manufacturer’s protocol (Promega). Luminescence signals were measured at 0.2 s using a Victor X4 multimode plate reader (PerkinElmer). […]
Figure S3. Effect of human serum on NVR 3-778 antiviral activities. HepG2.2.15 cells were incubated with increasing concentrations of NVR 3-778 for 6 days in the presence of 0% (●), 10% […]
HBV DNA concentrations were determined from supernatant and compared to untreated cells containing the corresponding concentration of human serum. Data points represent mean values from at least three independent antiviral studies, and standard deviations are shown as error bars.

The nature of series [4]: Hepatocyte stability, dog hepatocytes. Type of series: in vitro ADME. Conditions: 120 min incubation. On the procedure:
Following in vitro incubation for 120 min with human, mouse, or dog hepatocytes, >85% of the NVR 3-778 remained intact. […] The fewest number of metabolites was found following incubation with human hepatocytes, where 92% of the NVR 3-778 remained after a 120-min incubation.

The mark [5] stands for this setting: 2% human serum as printed in the table (text: 20%) versus without human serum.
Where [6] appears, read: 10% human serum versus without human serum.
The mark [7] stands for this setting: 0% human serum, supernatant HBV DNA.
[8] abbreviates: 2% human serum as printed in the table (text: 20%).
Setting [9] is: 10% human serum, supernatant HBV DNA.
[10] abbreviates: 40% human serum, supernatant HBV DNA.

Protocol for HBV GT D: as §1

By EC50 is commonly meant the concentration needed to bring the measured effect to its halfway point. Broadly, the EC90 is the concentration needed for an effect of 90%. As to `O=C(Nc1cc(F)c(F)c(F)c1)c1ccc(F)c(S(=O)(=O)N2CCC(O)CC2)c1` [NVR 3-778], the “Increase in EC50 against HBV DNA replication in the presence of serum proteins” value in the series on HBV [1] is “about 4 fold”. The concentration for a half-maximal effect (EC50) in the series on HBV GT D came to 0.43 µM; with HBV [3] (setting [7]), 0.4 ± 0.1 µM; in the series on HBV [3] (setting [8]), 3.7 ± 1 µM; with HBV [3] (setting [9]) it was 1.8 ± 0.51 µM; with HBV [3] (setting [10]) it was 6.3 ± 2 µM. In addition, in series [2], the “Spread of EC50 values against HBV DNA replication across GT A to H isolates” value is on record as at most 3 fold. In addition, in the series on HBV (GT C) (HBV-infected humanized mice, 405 mg/kg BID), the “Antiviral activity compared with ETV” value is listed as “antiviral activity similar to that of the nucleoside analog ETV”. In addition, in the series with HBV (GT C) (HBV-infected humanized mice), the “Reduction of serum HBV DNA and HBV RNA, combination with pegIFN versus NVR 3-778 alone, pegIFN alone or entecavir alone” value is “greater reduction in both serum HBV DNA and HBV RNA levels”. Besides, in the series with HBV (GT C) (humanized mice infected with GT C HBV), the “Effect on serum HBV DNA and HBV RNA levels” value is “effective at reducing both serum HBV DNA and HBV RNA levels; also recorded: significant reductions in HBV DNA and secreted HBV RNA levels”. In addition, the EC50 fold shift in the series on HBV [3] (0% human serum (reference)) was 1; in the series on HBV [3] (setting [5]), 9.3; in the series with HBV [3] (setting [6]) it was 4.5. Further, the EC90 fold shift in the series with HBV [3] (0% human serum (reference)) was 1.0; in the series with HBV [3] (setting [5]), 10.3; in the series with HBV [3] (setting [6]), 4.5; in the series on HBV [3] (40% human serum versus without human serum) it was 15.2. Besides, the EC90 turned out to be 1.5 ± 0.41 µM in the series with HBV [3] (setting [7]), 15.9 ± 6.3 µM in the series on HBV [3] (setting [8]), 6.9 ± 0.9 µM in the series on HBV [3] (setting [9]) and 23.5 ± 11.6 µM in the series with HBV [3] (setting [10]). For the same molecule, in series [4], the “NVR 3-778 remaining intact” value was above 85%.

The record behind these values is paper PMC6325219, “Preclinical Characterization of NVR 3-778, a First-in-Class Capsid Assembly Modulator against Hepatitis B Virus” (Antimicrobial Agents and Chemotherapy, 2018).
